The term melting point denotes the temperature of the solid-liquid transition.

Here are results for 91 compounds from a melting point compilation (Tetko et al.; mined from patent text by program, amines drawn as free bases though some values may be those of a salt).

The compound `COC(=O)c1c(C)nc2c(c1N)c1ccccc1n2C` yielded a melting point of 98 to 100 °C.

On to `CS(=O)(=O)c1ccccc1S(N)(=O)=O`, for which the melting point fell in the range of 249 to 250 °C.

For the compound `CCCCCCNc1ccc(N=O)cc1`, the melting point was 46 to 48 °C.

On to `Nc1cc(C(=O)c2ccccc2)ccc1N1CCOCC1`, for which the melting point stood at 138 °C.

For `O=C(CNc1ccc(S(=O)(=O)O)cc1)c1ccccc1`, the melting point was > 300 °C.

As to `COc1ccccc1N1CCN(CC(O)CCl)CC1` (stereo unspecified), the melting point is 96 to 98 °C.

Consider `O=C(NC(=O)c1ccc(OCCn2ccnc2)cc1)c1ccccc1`, for which the melting point is 152 to 154 °C.

`CCOC(=O)c1ccc(C(C(N)=O)C(Cc2ccccc2)c2ccccc2N2CCCCC2)cc1` (stereo unspecified) yielded a melting point of 161 to 162 °C.

In turn, `CCCCCCCCC(=O)N1C(=O)CCC1=O` registered a melting point of 59 to 60 °C.

`CC(=O)Oc1ccc2c(c1)cc(C(=O)O)n2C(C)=O`: the melting point lay within 142 to 145 °C.

With `CNS(=O)(=O)c1ccc2c(c1)S(=O)(=O)NC1CCCN21` (stereo unspecified), the melting point lay in the range of 244 to 245 °C.

Compound `COC(=O)Cc1ccnc(NC=O)n1` gave a melting point of 103 to 107 °C.

For `COC(=O)N=C(NC(=O)NC1CCCCC1)OC`, the melting point is 79 to 80.5 °C.

`CCN1CCN(c2ccc(C(=O)NCCCCCCCCCCCCO[N+](=O)[O-])cn2)CC1` came in with a melting point of 71 to 72 °C.

In the case of `CNC(=O)N(O)CCNC(=O)c1ccc2ccccc2n1`, the melting point is 158 to 159 °C.

Compound `N#Cc1ccc2oc(CO)cc2c1` came in with a melting point of 113 to 114 °C.

On to `O=C1NCc2c(O)nc3ccccc3c21`, for which the melting point was in the range of 245 to 246 °C.

In the case of `C[C@@H](c1ccc(-c2ccn(C3CC3)c(=O)c2)cc1)N1CC[C@](CC(C)(C)O)(c2ccccc2)OC1=O`, the melting point fell in the range of 91 to 94 °C.

`COc1ccc(C(=O)Nc2cc(NC(=O)c3cccc(N(C)S(C)(=O)=O)c3)ccc2C)cc1OC` yielded a melting point of 168 to 169 °C.

Consider `Nc1ccccc1SCc1noc(CSc2ccccc2N)n1`, for which the melting point was 68 °C.

With `CN1N=C(c2ccc(F)cc2)c2ccc(C#N)cc2CS1(=O)=O`, the melting point lay within 284 to 285 °C.

`O=C(O)CCCC(=O)c1cc(-c2ccccc2)nc2ccccc12`: the melting point came out at 136 °C.

In turn, `C[C@H]1NC(Cc2ccc(Br)c(Oc3cc(C#N)cc(C(F)F)c3)c2F)=NNC1=O` registered a melting point of 184 to 186 °C.

In turn, `Cc1cccc(NC(=O)NCC(=O)N(CC(=O)N2CCSC(C)(C)C2)c2ccccc2)c1` displayed a melting point of 186 °C.

Compound `CN1CCc2cc(Br)[nH]c2C(c2ccccc2)C1` (stereo unspecified) returned a melting point of 132 to 133 °C.

Compound `Cc1nn(-c2ccccn2)c2[nH]c3ccc(C(F)(F)F)cc3c(=O)c12` had a melting point of 250 to 251 °C.

`CC1=NN=C(c2cc3ccccc3s2)c2cc3oc(=O)[nH]c3cc2C1` displayed a melting point of 338 to 340 °C.

With `CN1C(=O)N(c2cc(Cl)cc(Cl)c2)C(=O)/C1=C\c1ccc(C#N)cc1`, the melting point lay in the range of 239 to 241 °C.

As to `CC(NC(=O)OCc1ccccc1)C(=O)N1C(C(=O)O)CC2CCCCC21` (stereo unspecified), the melting point is 58.6 °C.

In turn, `O=C(c1ccc(CBr)cc1)c1ccc([N+](=O)[O-])cc1` had a melting point of 113 °C.

`CCC(=O)NCCC1CN(C=O)c2ccc3c(c21)CCO3` (stereo unspecified) displayed a melting point of 139 to 141 °C.

With `O=C(Nc1ccc(Oc2ccccc2)cc1)N1CCN(c2nnc(Cc3ccccc3)c3ccccc23)CC1`, the melting point is 100 to 101 °C.

As to `CNC(=O)c1cc2c(Oc3ccc(COCCOC)cc3)cncc2s1`, the melting point lay within 133 to 134 °C.

`CC(C)(C)OC(=O)NC1(c2ccccc2)CCN(CCC2(c3ccc(F)c(F)c3)CN(C(=O)c3ccccc3)CCO2)CC1` (stereo unspecified): the melting point is 107 °C.

The compound `COc1ccc(S(=O)(=O)c2ccc3cc(Br)ccc3c2)cc1` gave a melting point of 180 to 181 °C.

Compound `O=C1N(Cc2nc3ncccc3o2)c2ccccc2C12COc1cc3c(cc12)OCO3` (stereo unspecified) came in with a melting point of 202 to 204 °C.

For `CC1=C(C(=O)c2ccc(Cl)cc2)C(=O)C2C=CC=CC2C1=O` (stereo unspecified), the melting point is 136 to 137 °C.

Consider `CCCCC(Cc1ccc(OCCNC(=O)c2ccc(OC(C)C)nc2)cc1)C(=O)O` (stereo unspecified), for which the melting point lay within 117 to 118 °C.

`NC(=O)c1cccc(OCc2ccc(F)cc2)c1` came in with a melting point of 161 to 162 °C.

Turning to `Cc1c(-c2ccc(Cl)c(Cl)c2)n(-c2ccccc2)c(-c2ccccc2)cc1=O`, the melting point is 188 to 191 °C.

As for `O=c1[nH]nc2ccc(NCCCN3CCC(OC(c4ccccc4)c4ccccc4)CC3)nn12`, the melting point lay within 156 to 170 °C.

For `COC(=O)C(C#N)=CC1=C(N2CCCC2)CCCC1`, the melting point was in the range of 133 to 134 °C.

As to `CCCCCCCCCCCC(CC(=O)O)OC(C)=O` (racemic), the melting point came to 37 °C.

With `CCOP(=O)(OCC)C(CCc1cc(C)nc2c(Br)c(-c3ccccc3)nn12)P(=O)(OCC)OCC`, the melting point was in the range of 46 to 48 °C.

As to `CCN(CC)CCC1CCCCN1CCNC(=O)N1c2ccccc2C(=O)Nc2cccnc21` (stereo unspecified), the melting point was in the range of 161 to 162 °C.

Take `CC(CCC(O)C(C)(C)O)C1CCC2C3C(O)CC4CC(O)CCC4(C)C3CC(O)C12C` (stereo unspecified): the melting point is 199 to 200 °C.

With `CC(=O)N1CCC(c2ccc(S(=O)(=O)Cl)cc2)CC1`, the melting point was in the range of 133 to 134 °C.

The compound `CC(=O)OCCC1CC2=C(O1)C(C)=CC(C)(O)C2C` (racemic) displayed a melting point of 90 to 92 °C.

The compound `CCOC(=O)c1cc2c(C(F)(F)F)cc(OCC(=O)O)cc2n1C` showed a melting point of 200 to 202 °C.

Regarding `N#Cc1cc([N+](=O)[O-])ccc1N1CCCCC1`, the melting point came to 75 °C.

For the compound `CCCNC(=O)n1nc(Oc2ccc(C(F)(F)F)cc2[N+](=O)[O-])cc1C`, the melting point was in the range of 50 to 51 °C.

Take `CCCc1c(C(=O)C2CC2)c2ccc(C(N)=O)cc2n1Cc1ccccc1Cl`: the melting point lay within 162 to 164 °C.

As to `COc1cc2sc(C(N)=O)cc2c(Cl)c1OC`, the melting point was in the range of 180 to 182 °C.

Consider `NS(=O)(=O)c1cc2[nH]c(=O)ccc2s1`, for which the melting point is > 300 °C.

`COC(=O)C(=Cc1cc(OC)c(OC)cc1Br)c1ccccc1C(=O)O` gave a melting point of 129 to 130 °C.

For the compound `Cc1c(N2CCNCC2)nn2c(-c3ccncc3)c(-c3ccc(F)cc3)nc2c1C`, the melting point is 233 to 235 °C.

In turn, `OC(c1ccc(Cl)cc1)c1ccc(-n2ccnc2)nc1` (stereo unspecified) came in with a melting point of 147 to 149 °C.

As for `CCCCc1oc2ccc([N+](=O)[O-])cc2c1C(=O)c1ccc(OCCCCCBr)cc1`, the melting point turned out to be 55 °C.

`O=C1C(=O)N(Cc2ccccc2F)c2ccc(S(=O)(=O)N3CC[C@H]3COc3ccccc3)cc21` showed a melting point of 147 to 148 °C.

In turn, `O=C(O)CCCCCCCCn1c(-c2ccccc2)c(-c2ccccc2)n(-c2ccccc2)c1=O` gave a melting point of 123 to 124 °C.

`CCc1cc2ccccc2c(=O)o1` gave a melting point of 69 °C.

As to `COc1c(O)ccc2c1OCC2=O`, the melting point came to 160 °C.

The compound `Fc1cc(CCl)c(F)cc1CCl` yielded a melting point of 62.5 to 64.5 °C.

`OC[C@@H]1Cc2ccccc2CN1C(=S)Nc1cccnc1`: the melting point stood at 192 °C.

In turn, `Cc1cccc(C(O)c2cncn2C(c2ccccc2)(c2ccccc2)c2ccccc2)c1C` (stereo unspecified) came in with a melting point of 203 to 207 °C.

Regarding `CNc1ncccc1[N+](=O)[O-]`, the melting point lay in the range of 52 to 53 °C.

`COc1cc(/C=C/C(=O)/C=C/c2cc(OC)c(OCCO)c(OC)c2)cc(OC)c1OCCO`: the melting point is 133 to 135 °C.

On to `CCC(C)CC1OC(CC(=O)Nc2ccc(F)c(CCC(=O)O)c2)C(=O)N(CC(C)(C)CO)c2ccc(Cl)cc21` (stereo unspecified), for which the melting point is 123 to 125 °C.

Compound `CNc1c(N)cnn1C` yielded a melting point of 185 to 188 °C.

Compound `CCOC(=O)c1cc(-c2ccc(Cl)cc2Cl)c(-c2ccc(Cl)cc2)nc1C` yielded a melting point of 114 °C.

`CCS(=O)(=O)N[C@H](C(=O)NCCc1cc(Br)c(OCC#Cc2ccc(Cl)cc2)c(OC)c1)C(C)C` returned a melting point of 109 to 111 °C.

On to `C#CCN1C(=O)COc2ccc(-n3c(Cl)nc(C(F)(F)F)cc3=O)cc21`, for which the melting point was in the range of 143 to 145 °C.

Compound `CCOc1nc(NCc2ccco2)nc(Oc2cccc(C(F)(F)F)c2)n1` displayed a melting point of 97 to 99 °C.

As for `CC(C)n1c(=O)nc(-c2ccccc2)c2cc3c(cc21)OCO3`, the melting point is 189 to 190 °C.

`CCCC1=NC(=NOC(=O)NC)SC1(C)CC` (stereo unspecified) registered a melting point of 124 to 126 °C.

Turning to `CC(C)(C)c1ccc(CCCC(O)CC2CCCCC2)cc1NC(=O)CC1c2ccccc2Oc2ccccc21` (stereo unspecified), the melting point was in the range of 157 to 158 °C.

Compound `CS(=O)(=O)c1ccc(-c2cnn(CC(F)(F)F)c(=O)c2Cc2cccc(F)c2)cc1` showed a melting point of 58 to 62 °C.

Consider `N#Cc1c(Sc2ncc([N+](=O)[O-])s2)nsc1Sc1ncc([N+](=O)[O-])s1`, for which the melting point was 197 to 200 °C.

`CSc1cnnc(Cl)c1`: the melting point lay within 98 to 100 °C.

The compound `CCC(CC)Oc1cc(C)nc(Oc2c(C)cc(C)cc2C)c1C` displayed a melting point of 72.5 to 74 °C.

As for `O=c1c2cc([N+](=O)[O-])ccc2cc2n1CCCS2(=O)=O`, the melting point lay in the range of 242 to 244 °C.

As for `Clc1ccc(OCc2ccnc3ncnn23)cc1`, the melting point was in the range of 193 to 194 °C.

`CCCC(=O)NN=Cc1ccnc2ccccc12` had a melting point of 130 °C.

The compound `CS(=O)(=O)c1ccc(C(Cc2ccc(F)cc2)C(=O)Nc2nc3ccc(CO)cc3o2)cc1` (stereo unspecified) gave a melting point of 128 to 130 °C.

In the case of `CCN1c2ncc(C=O)cc2C(=O)N(C)c2ccc(F)nc21`, the melting point is 133 to 134 °C.

The compound `COC1NC(=O)CC2CC1c1ccccc12` (stereo unspecified) registered a melting point of 205 to 207 °C.

The compound `CSC(=C[N+](=O)[O-])NCCCOc1cccc(CN2CCCCC2)c1` registered a melting point of 68 to 69.5 °C.

`CC(C)(C)OC(=O)Nc1cc(OCC#N)c(I)cc1[N+](=O)[O-]` had a melting point of 125 °C.

`CCC(C(=O)C(C)C(O)C(C)CCc1ccc(C)c(O)c1C(=O)O)C1OC(CC)(C2CCC(O)(CC)C(C)O2)CC1C` (stereo unspecified) gave a melting point of 250 °C.

Regarding `CCOC1C=CC(=O)N1` (stereo unspecified), the melting point fell in the range of 50 to 52 °C.

Take `CCOC(=O)c1c(Nc2ccncc2)c2ccc(Cl)cc2n1C`: the melting point was in the range of 154 to 155 °C.
